Laboratory results taken from ChEMBL document CHEMBL1201862, “PubChem BioAssay data set” (2004).
The source made the active and inactive calls. Rule as the data show it, for most assays here: actives have a measured IC50 and inactives only a lower limit.

Tests used:
Protein Rev = Protein Rev (Human immunodeficiency virus type 1 group M subtype B (isolate HXB2)(HIV-1), UniProt P04618); assay: blockers of HIV Rev/RRE RNA complex – biochemical, fluorescence polarization, HIV-1, dose response (AID 434976); parameters: species or system Human immunodeficiency virus 1
Chain of Protein Rev (P04618 whole entry): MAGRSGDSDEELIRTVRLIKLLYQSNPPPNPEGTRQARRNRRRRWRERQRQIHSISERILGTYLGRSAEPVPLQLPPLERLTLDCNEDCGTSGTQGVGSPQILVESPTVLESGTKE

[1] = molecular target: Female germline-specific tumor suppressor gld-1 (Caenorhabditis elegans, UniProt Q17339); assay: blockers of GLD-1/TGE RNA complex formation – biochemical, fluorescence polarization, C. elegans, dose response (AID 2802);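 also: fluorescence polarization of labeled TGE RNA bound by purified gld-1 protein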
Chain of Female germline-specific tumor suppressor gld-1 (Q17339 whole entry): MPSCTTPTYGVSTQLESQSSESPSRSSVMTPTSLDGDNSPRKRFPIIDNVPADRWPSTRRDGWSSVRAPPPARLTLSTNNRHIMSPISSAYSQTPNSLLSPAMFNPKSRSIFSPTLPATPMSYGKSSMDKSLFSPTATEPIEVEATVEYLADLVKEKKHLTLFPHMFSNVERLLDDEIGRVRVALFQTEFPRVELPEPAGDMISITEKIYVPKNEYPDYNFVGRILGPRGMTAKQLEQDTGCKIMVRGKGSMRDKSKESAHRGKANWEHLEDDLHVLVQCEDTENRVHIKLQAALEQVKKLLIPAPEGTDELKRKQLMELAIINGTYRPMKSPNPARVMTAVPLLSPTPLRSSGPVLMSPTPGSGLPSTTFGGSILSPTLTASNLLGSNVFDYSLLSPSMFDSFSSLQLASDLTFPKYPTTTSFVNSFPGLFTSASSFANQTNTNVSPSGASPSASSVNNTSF

[2] = molecular target: T1, Dual specificity protein phosphatase 6 (Rattus norvegicus, UniProt Q64346); assay type: functional;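 also: confirmatory in vitro dose-response testing of MKP-3 inhibition; recombinant His-tagged MKP-3 made in E. coli BL21 with OMFP substrate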
T1 sequence (Q64346 whole entry): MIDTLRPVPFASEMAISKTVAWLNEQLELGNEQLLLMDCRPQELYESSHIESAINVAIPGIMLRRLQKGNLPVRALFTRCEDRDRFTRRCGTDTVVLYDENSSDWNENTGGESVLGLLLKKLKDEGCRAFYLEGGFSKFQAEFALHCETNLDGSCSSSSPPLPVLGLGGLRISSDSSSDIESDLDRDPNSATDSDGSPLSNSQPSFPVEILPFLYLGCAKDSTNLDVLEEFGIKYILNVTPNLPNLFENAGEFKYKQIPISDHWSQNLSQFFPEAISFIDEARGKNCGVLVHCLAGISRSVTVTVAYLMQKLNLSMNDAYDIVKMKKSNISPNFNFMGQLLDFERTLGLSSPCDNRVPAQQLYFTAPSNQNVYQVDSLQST

[3] = molecular target: T2, Dual specificity protein phosphatase 3 (Homo sapiens, UniProt P51452); assay: SAR VHR1 Fluorescent Assay for In Vitro dose response studies. [Related pubchem assays (depositor defined):AID1654, AID1661, AID1878, AID1992, AID2004, AID2070, AID2085]; assay type: functional
T2 sequence (P51452 whole entry): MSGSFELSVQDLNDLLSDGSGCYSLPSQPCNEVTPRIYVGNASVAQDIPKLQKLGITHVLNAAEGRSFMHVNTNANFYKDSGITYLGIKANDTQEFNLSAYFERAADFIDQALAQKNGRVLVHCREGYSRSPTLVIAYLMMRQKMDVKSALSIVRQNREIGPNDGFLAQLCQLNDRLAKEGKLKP

[4] = molecular target: T3, Tyrosine-protein phosphatase non-receptor type 7 (Homo sapiens, UniProt P35236); assay: redox-active compounds inhibiting HePTP phosphatase – biochemical, fluorescence, mechanism study (AID 2068); assay type: functional
T3 sequence (P35236 whole entry): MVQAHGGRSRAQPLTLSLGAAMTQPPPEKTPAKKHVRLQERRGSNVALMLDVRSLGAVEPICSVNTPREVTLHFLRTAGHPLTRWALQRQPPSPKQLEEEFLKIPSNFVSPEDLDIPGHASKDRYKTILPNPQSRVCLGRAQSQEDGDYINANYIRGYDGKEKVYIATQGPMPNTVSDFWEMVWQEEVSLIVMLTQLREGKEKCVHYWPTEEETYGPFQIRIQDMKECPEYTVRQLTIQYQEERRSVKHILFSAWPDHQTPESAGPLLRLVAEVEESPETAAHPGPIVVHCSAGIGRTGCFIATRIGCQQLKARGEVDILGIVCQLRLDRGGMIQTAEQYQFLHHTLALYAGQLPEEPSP

[5] = molecular target: T2, Dual specificity protein phosphatase 3; assay: SAR VHR1 absorbance Assay for In Vitro dose response studies. [Related pubchem assays (depositor defined):AID1654, AID1661, AID1878, AID1992, AID2004]
[6] = molecular target: T4, Kappa-type opioid receptor (Homo sapiens, UniProt P41145); assay: SAR analysis of Antagonists of the Kappa Opioid Receptor (KOR) using an Image-Based Assay - Set 3. [Related pubchem assays (depositor defined):AID1777, AID1785]; assay type: functional
T4 sequence (P41145 whole entry): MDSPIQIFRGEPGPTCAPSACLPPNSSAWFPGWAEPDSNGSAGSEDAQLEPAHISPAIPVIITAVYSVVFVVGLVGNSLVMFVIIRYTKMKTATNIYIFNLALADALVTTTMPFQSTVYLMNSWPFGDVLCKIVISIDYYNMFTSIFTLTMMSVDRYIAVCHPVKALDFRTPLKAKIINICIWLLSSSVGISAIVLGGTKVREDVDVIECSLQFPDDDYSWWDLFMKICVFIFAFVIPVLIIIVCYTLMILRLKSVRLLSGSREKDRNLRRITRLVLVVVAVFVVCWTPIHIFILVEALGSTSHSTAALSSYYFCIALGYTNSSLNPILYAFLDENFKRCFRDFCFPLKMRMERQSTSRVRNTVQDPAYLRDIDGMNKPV

Mu-type opioid receptor = Mu-type opioid receptor (Homo sapiens, UniProt P35372); assay: SAR Analysis of Antagonists of the MOR Receptor using an Image-Based Assay - Set 3. [Related pubchem assays (depositor defined):AID1777, AID1785, AID1786, AID1966, AID2133, AID2136, AID2284, AID2285, AID2420]; assay type: functional
Chain of Mu-type opioid receptor (P35372 whole entry): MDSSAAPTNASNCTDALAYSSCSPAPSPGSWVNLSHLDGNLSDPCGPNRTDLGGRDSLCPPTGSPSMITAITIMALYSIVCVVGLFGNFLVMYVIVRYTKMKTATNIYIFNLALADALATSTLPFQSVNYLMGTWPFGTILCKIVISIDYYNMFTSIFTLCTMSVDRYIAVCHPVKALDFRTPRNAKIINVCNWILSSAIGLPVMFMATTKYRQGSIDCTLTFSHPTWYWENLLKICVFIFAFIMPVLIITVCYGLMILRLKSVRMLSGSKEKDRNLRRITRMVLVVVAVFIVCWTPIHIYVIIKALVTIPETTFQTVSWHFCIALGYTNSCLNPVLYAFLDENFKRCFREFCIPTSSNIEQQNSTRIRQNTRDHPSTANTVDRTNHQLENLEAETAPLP

[7] = molecular target: T4, Kappa-type opioid receptor; assay: SAR analysis of small molecule antagonists of the kappa opioid receptor via a luminescent beta-arrestin assay - Set 3. [Related pubchem assays (depositor defined):AID1777, AID1778, AID1785, AID1786, AID1966, AID2133, AID2136, AID2285, AID2495]; assay type: functional
[8] = molecular target: Delta-type opioid receptor (Homo sapiens, UniProt P41143); assay: SAR Analysis of Antagonists of the DOR Receptor using an Image-Based Assay - Set 3. [Related pubchem assays (depositor defined):AID1777, AID1785]; assay type: functional;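 also: U2OS cells expressing DOR1 and beta-arrestin GFP stimulated with 100 nM SNC80; imaging of GFP-tagged beta-arrestin moving into spots after receptor activation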
Chain of Delta-type opioid receptor (P41143 whole entry): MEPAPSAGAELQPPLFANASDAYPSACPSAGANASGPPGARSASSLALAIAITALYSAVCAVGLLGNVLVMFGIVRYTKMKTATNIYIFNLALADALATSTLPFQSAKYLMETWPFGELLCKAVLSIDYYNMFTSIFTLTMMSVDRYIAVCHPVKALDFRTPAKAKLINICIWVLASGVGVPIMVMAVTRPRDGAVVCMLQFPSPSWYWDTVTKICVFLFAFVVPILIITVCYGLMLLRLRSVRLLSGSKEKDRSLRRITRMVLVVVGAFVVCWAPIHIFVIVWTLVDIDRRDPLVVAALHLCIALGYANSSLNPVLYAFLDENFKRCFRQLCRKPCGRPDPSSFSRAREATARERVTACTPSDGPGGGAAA

[9] = molecular target: Sphingosine 1-phosphate receptor 4 (Homo sapiens, UniProt O95977); assay: potency of S1P4 activators – cell-based, fluorescence, synthesized compounds, late-stage follow-up (AID 463107); assay type: functional
Chain of Sphingosine 1-phosphate receptor 4 (O95977 whole entry): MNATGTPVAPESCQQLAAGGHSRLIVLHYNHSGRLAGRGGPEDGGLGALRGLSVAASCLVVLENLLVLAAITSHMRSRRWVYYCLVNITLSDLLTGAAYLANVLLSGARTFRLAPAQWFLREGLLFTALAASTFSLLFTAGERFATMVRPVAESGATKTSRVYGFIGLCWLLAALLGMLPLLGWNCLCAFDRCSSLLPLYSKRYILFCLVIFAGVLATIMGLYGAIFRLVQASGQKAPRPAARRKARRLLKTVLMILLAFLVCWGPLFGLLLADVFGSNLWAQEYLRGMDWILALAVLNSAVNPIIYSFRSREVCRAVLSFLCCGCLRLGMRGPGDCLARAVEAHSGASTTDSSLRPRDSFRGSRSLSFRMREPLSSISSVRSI

[10] = molecular target: T5, Tyrosine-protein phosphatase non-receptor type 22 (Homo sapiens, UniProt Q9Y2R2); assay: inhibition of lymphoid tyrosine phosphatase LYP – biochemical, pCAP fluorogenic substrate, fluorescence, set 3, SAR follow-up (AID 449727); assay type: functional
T5 sequence (Q9Y2R2 whole entry): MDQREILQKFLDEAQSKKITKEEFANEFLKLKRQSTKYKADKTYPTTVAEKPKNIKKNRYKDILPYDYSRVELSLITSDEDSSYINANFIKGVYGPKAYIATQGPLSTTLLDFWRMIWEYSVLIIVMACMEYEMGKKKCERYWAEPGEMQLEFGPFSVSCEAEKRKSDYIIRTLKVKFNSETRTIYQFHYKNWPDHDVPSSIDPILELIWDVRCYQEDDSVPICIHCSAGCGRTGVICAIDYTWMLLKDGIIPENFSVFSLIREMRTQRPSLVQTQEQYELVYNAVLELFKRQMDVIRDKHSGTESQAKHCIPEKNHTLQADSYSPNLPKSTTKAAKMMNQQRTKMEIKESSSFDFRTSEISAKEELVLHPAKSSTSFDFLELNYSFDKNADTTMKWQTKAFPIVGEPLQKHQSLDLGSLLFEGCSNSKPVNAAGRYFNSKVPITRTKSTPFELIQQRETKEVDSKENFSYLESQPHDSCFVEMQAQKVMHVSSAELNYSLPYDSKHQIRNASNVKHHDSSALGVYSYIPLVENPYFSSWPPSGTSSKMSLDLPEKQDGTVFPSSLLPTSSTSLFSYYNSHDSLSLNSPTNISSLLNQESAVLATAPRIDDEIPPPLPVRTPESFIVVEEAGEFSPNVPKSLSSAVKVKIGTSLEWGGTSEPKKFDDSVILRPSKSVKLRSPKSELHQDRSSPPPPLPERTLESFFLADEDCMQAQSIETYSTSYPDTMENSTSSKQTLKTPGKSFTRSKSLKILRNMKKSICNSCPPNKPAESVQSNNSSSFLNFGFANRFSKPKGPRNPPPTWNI

[11] = molecular target: T5, Tyrosine-protein phosphatase non-receptor type 22; assay: SAR LYP1 Fluorescent Assay using OMFP substrate for In Vitro dose response studies - Set 3. [Related pubchem assays (depositor defined):AID1779, AID1784, AID2140, AID2686]; assay type: functional
[12] = molecular target: T3, Tyrosine-protein phosphatase non-receptor type 7; assay: inhibition of hematopoietic tyrosine phosphatase HePTP – biochemical, set 2, SAR follow-up (AID 449736); assay type: functional
[13] = molecular target: Tyrosine-protein phosphatase non-receptor type 12 (Homo sapiens, UniProt Q05209); assay: SAR Selectivity Analysis of small molecule inhibitors of PEST using pCAP in a fluorescence assay. [Related pubchem assays (depositor defined):AID1779, AID1784, AID2135]; assay type: functional
Chain of Tyrosine-protein phosphatase non-receptor type 12 (Q05209 whole entry): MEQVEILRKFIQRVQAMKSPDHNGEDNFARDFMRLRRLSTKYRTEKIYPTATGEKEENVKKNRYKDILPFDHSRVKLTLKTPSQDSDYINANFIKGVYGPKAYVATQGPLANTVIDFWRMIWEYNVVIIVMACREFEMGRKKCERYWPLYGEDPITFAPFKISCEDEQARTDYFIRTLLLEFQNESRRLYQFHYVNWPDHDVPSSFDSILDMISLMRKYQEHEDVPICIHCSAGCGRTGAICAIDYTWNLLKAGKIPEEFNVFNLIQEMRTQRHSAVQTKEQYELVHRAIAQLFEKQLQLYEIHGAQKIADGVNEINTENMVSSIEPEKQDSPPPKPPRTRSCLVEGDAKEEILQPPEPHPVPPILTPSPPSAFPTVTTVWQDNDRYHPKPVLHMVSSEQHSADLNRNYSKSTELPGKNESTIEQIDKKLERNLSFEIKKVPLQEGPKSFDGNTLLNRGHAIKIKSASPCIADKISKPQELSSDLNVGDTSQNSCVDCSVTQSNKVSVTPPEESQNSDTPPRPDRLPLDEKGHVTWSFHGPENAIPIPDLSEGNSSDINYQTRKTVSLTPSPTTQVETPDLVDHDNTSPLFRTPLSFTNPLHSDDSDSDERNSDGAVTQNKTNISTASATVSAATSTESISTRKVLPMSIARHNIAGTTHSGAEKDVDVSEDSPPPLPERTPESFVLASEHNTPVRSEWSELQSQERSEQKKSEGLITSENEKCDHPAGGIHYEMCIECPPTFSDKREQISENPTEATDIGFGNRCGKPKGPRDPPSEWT

[14] = molecular target: T5, Tyrosine-protein phosphatase non-receptor type 22; assay: PubChem AID 2140
[15] = molecular target: T5, Tyrosine-protein phosphatase non-receptor type 22; assay: SAR LYP1 Fluorescent Assay using pCAP substrate for In Vitro dose response studies - Set 2. [Related pubchem assays (depositor defined):AID1779, AID1784, AID2135, AID449727]; assay type: functional
[16] = molecular target: T5, Tyrosine-protein phosphatase non-receptor type 22; assay: SAR LYP1 Fluorescent Assay using OMFP substrate for In Vitro dose response studies - Set 2. [Related pubchem assays (depositor defined):AID1779, AID1784, AID2140, AID449726, AID488869]; assay type: functional
[17] = molecular target: T5, Tyrosine-protein phosphatase non-receptor type 22; assay: PubChem AID 2135

## c1cc2c3c(cccc3c1)C(N1CCOCC1)=N2
Protein Rev
  IC50: 29.2 µM (not active)
[1]
  IC50: 8.44 µM (active)

## Fc1ccc(OCCn2cc(C(=S)N3CCCCC3)c3ccccc32)cc1
[2]
  IC50: > 99 µM (inactive)
[3]
  IC50: > 99 µM (inactive)
[4]
  IC50: 47.2 µM (active)
[5]
  IC50: > 100 µM (inactive)

## CCc1ccc(S(=O)(=O)NCc2ccc(C(=O)NCCN(Cc3ccc(Br)cc3)C(C)C)cc2)cc1
[6]
  IC50: 0.523 µM (active)
Mu-type opioid receptor
  IC50: > 32 µM (inactive)
[7]
  IC50: 0.82 µM (active)
[8]
  IC50: > 32 µM (inactive)

## Cc1ccc(OCCCOc2ccc(C)nc2[N+](=O)[O-])c([N+](=O)[O-])n1
[9]
  EC50: > 50 µM (inactive)

## COC(=O)c1ccc(COc2ccc3cc(-c4ccc(F)cc4)c(=O)oc3c2)cc1
[10]
  IC50: > 100 µM (inactive)
[11]
  IC50: > 100 µM (inactive)
[12]
  IC50: 40 µM (active)
[13]
  IC50: > 100 µM (inactive)
[14]
  IC50: > 100 µM (inactive)
[15]
  IC50: > 100 µM (inactive)
[16]
  IC50: > 100 µM (inactive)
[17]
  IC50: > 100 µM (inactive)
